# In US6632793B1, “Immunological activity for a peptide of the limulus anti-LPS factor” (Centro de Ingenieria Genetica y Biotecnologia, priority 1997, dated 2003):
# Where a SMILES comes first, the peptide text is derived from it.
# Assays:
# [1] = test system: Mengo virus on cell line Hep-2; assay: Antiviral effect: inhibition of the cytopathic effect of Mengo virus on cell line Hep-2; type: cell-based; settings: for Antiviral effect, 1 / Antiviral effect, 2 / Antiviral effect, 3 / Antiviral effect, Mean: 24 h pre-incubation; for Antiviral effect, 1: experiment 1; for Antiviral effect, 2: experiment 2; for Antiviral effect, 3: experiment 3; for Antiviral effect, Mean: mean of 3
# Description: (§1) Then the cells were washed with saline solution and infected with […] of Mengo virus, provide by Institute of Molecular Biology, University of Zurich, which is multiplied in the cell line L929 murine fibroblasts. 18 h later degree of cell destruction was measured by fixation and staining, generally with crystal violet, for reading of cytophatic effect was used a photometer Ultramicroanalytical System (SUMA). A computer program in Pascal UCSD language for the microcomputer system was developed for all calculations and corrections (Ferrero et al., 1994, Biotecnologia Aplicada. Vol. 1:). In this case serial dilution's of human γ-IFN 70 000 IU/ml (MRI, Freeze-dried Reference Human Recombinant Gamma Interferon) was used as standard in order to define unit of antiviral activity. For this reason the antiviral protection shown by the peptide is related to International Units of γ-IFN (Ul/ml). As a negative control were used different peptides from proteins that bind endotoxin. LPS at 10 ng/ml was used as a positively control because is well known that it induced the production of IFNs (Manthey et al., 1994, J. Immunology. Vol. 153: 2653-2663). One unit of antiviral activity is define as the quantity of IFN able to produce an 50% inhibition of the viral replication.
# human mononuclear cells = assay: Antiviral effect on Hep-2 cells of supernatant from human mononuclear cells stimulated with peptide; type: cell-based; settings: for Antiviral effect of supernatant, 1: supernatant on Hep-2, experiment 1; for Antiviral effect of supernatant, 2: supernatant on Hep-2, experiment 2; for Antiviral effect of supernatant, 3: supernatant on Hep-2, experiment 3; for Antiviral effect of supernatant, Mean: supernatant on Hep-2, mean of 3
# Description: as §1
# Venous blood was obtained from healthy volunteers and Ficoll-Hypaque centrifugation, fractionated mononuclear cells. The mononuclear cells were washed and resuspended in endotoxin-free RPMI-1640 culture medium supplemented with 10% fetal calf serum. Concentration of 2×10^6 cells/ml were aliquoted into 24-well microtiter plates (Nunc, Denmark). The cells were then incubated with 14 and 28 μg/ml of different peptides: Limulus anti-LPS factor31-52 (LALF), Lipopolysaccharide Binding Protein86-99 (LBP) and 18 kDa Cationic Antimicrobial Protein108-128 (CAP-18), at 37° C. for 18 hours in 5% CO2. The cells were centrifuged at 3000 rpm for 5 min and then serial dilutions of supematants were assays for antiviral activity using the procedures described in the example 2.
# [2] = test system: TNFα from human mononuclear cells; assay: TNF-α synthesis by human mononuclear cells (ELISA of supernatant); type: cell-based; settings: for TNF - α: 18 h, mean of three donors
# Description: Venous blood was obtained from healthy volunteers and Ficoll-Hypaque centrifugation, fractionated mononuclear cells. The mononuclear cells were washed and resuspended in endotoxic-free RPMI 1640 medium supplemented with 10% fetal calf serum. 30×10^6 cells were aliquoted into plates p-60 (Nunc, Denmark). The cells were incubated with 14 or 28 μg/ml LALF at 37° C. for 18 hours in 5% CO2 and then centrifuged at 3000 rpm during 5 min. The synthesis of TNFα in the supernatant was determined by specific enzyme-linked immunoadsorbent assay (ELISA), kindly provided by Dr. W. Buurman (University Hospital Maastrich, The Netherlands).
# Pseudomona aerukinosa = assay: Survival in mice model of fulminating Gram-negative peritoneal sepsis; type: in vivo, mice BalB/c
# Description: A model of fulminating Gram-negative peritoneal sepsis was developed in mice BalB/c to characterize the efficacy of LALF peptide in protecting an immunologically intact host against serious infections. Groups of mice received LALF peptide (14 μg/0.1 ml) or saline control (0.1 ml) intraperitoneally 20 hours prior to infectious challenge. A doses of Pseudomona aerukinosa (2×10^8 bacterial/mice) producing a total mortality of approximately 90% (Browder et al., 1987, Surgery. Vol. 102: 206-214) was used in order to induce an experimental peritonitis. Survivor's mice were counted each 24 hours during 120 hours after bacterial challenge. Survival data were analyzed by statistical test Kaplan-Meyer, the significance analysis was determined using a long-rank test, table 5. Blood was collected for TNF quantification from the retroorbital sinus at the time 0, 20, 40, 60, 90, 120, 180, 240 min in the control group and peptide treated-mice. The concentration of TNF-α in mouse serum was determined using a specific ELISA kindly provided by. Dr. W. Buurman (University Hospital Maastrich, The Netherlands). FIG. 4.
# TNF-α in mouse serum = assay: Serum TNF after P. aeruginosa challenge in peptide-treated mice (ELISA); type: in vivo, mice BalB/c; settings: 14 μg i.p. 20 h before P. aeruginosa; 0-240 min; FIG. 4
# Description: Groups of mice received LALF peptide (14 μg/0.1 ml) or saline control (0.1 ml) intraperitoneally 20 hours prior to infectious challenge. […] Blood was collected for TNF quantification from the retroorbital sinus at the time 0, 20, 40, 60, 90, 120, 180, 240 min in the control group and peptide treated-mice. The concentration of TNF-α in mouse serum was determined using a specific ELISA kindly provided by.
# Eight-week-old mice were injected i.p. with 14 μg of peptide in 0.1 ml saline or saline alone. Twenty hours after the mice were injected i.p. with a lethal doses of P. aeruginosa. At 0, 20, 40, 60, 90, 120, 180 and 240 min following the challenge, the mice were bled from the retroorbital sinus and the serum concentration of TNF was measured.
# [3] = Cell viability of peritoneal macrophages (MTT reduction); type: cell-based, Balb/c mice; settings: Balb/c, mouse, primary thioglycollate-elicited peritoneal macrophages, 5 μM pre-incubation 18 h, then LPS, read-out: Viability of the cells
# Description: Peritoneal elicited cells were obtained from Balb/c mice (CENPALAB, Havana, Cuba). Primary mouse macrophages was collected from the peritoneal cavity 4 days after intraperitoneal injection with 1 ml of 4% Brewer's thioglicollate broth. Cell were maintained in RPMI 1640 supplemented with 10% heat-inactivated fetal bovine serum, 2 mM L-glutamine, 200 units/ml penicillin, and 200 μg/ml streptomycin at 37° C. in 5% CO2/[…].
# Assay for Secretion of NO2-(Jin, F^29, Nathan, C, Radzioch, 0, and Ding, A. Cell, 1997, 88: 417-426). Cells were plated in 96-well plates at 2×10^6 cells /ml in 200 μl of medium and incubated at 37° C. for 2 h, then non-adherent cells were removed by repeated washing with PBS. Macrophage were pre-incubated with 5 μM of LALF peptide during 18 h, afterward were washed with RPMI medium in order to eliminated the peptide. Then the macrophages were treated 72 hr with LPS of E. coli 0111:B4, Sigma (1 μg/ml). Cell viability was assessed by mitochondrial-dependent reduction of MTT to formazan (Szabo^30, c, Mitchell, J A, Gross, S S, Thiemermann, C, and Vane, JR. J. Pharm. Exp. Therap., 1992, 265: 674-80). […] Absorbance at 540 nm was recorded in a microplate reader (SUMA) with sodium nitrite as standards (Green^28, L C, Wagner, D A, Glogowski, J, et al. Anal Biochem 1982; 126: 131-8). […]
# [4] = mononuclear cells stimulated with 14 μg/ml for 18 h
# [5] = mononuclear cells stimulated with 28 μg/ml for 18 h
compound,measurement,setting,value
CC[C@H](C)[C@H](NC(=O)[C@H](CCCNC(=N)N)NC(=O)[C@H](Cc1ccc(O)cc1)NC(=O)[C@H](Cc1c[nH]cn1)NC(=O)[C@@H](N)CS)C(=O)N[C@@H](CCCCN)C(=O)N1CCC[C@H]1C(=O)N[C@H](C(=O)N[C@@H](Cc1ccccc1)C(=O)N[C@@H](CCCNC(=N)N)C(=O)N[C@@H](CCCNC(=N)N)C(=O)N[C@@H](CC(C)C)C(=O)N[C@@H](CCCCN)C(=O)N[C@@H](Cc1c[nH]c2ccccc12)C(=O)N[C@@H](CCCCN)C(=O)N[C@@H](Cc1ccc(O)cc1)C(=O)N[C@@H](CCCCN)C(=O)NCC(=O)N[C@@H](CCCCN)C(=O)N[C@@H](Cc1ccccc1)C(=O)N[C@@H](Cc1c[nH]c2ccccc12)C(=O)N[C@@H](CS)C(=O)O)[C@@H](C)O [LALF] (H-CHYRIKPTFRRLKWKYKGKFWC-OH),Induction of an antiviral state in Hep-2 cells (in words),[1]; 14 and 28 μg/ml,able to induce an antiviral state
same,"Antiviral effect, 1","[1]; Hep-2, 14 μg/ml",35 IU/ml γ-IFN
same,"Antiviral effect, 2","[1]; Hep-2, 14 μg/ml",31.7 IU/ml γ-IFN
same,"Antiviral effect, 3","[1]; Hep-2, 14 μg/ml",22 IU/ml γ-IFN
same,"Antiviral effect, Mean","[1]; Hep-2, 14 μg/ml",29.5 IU/ml γ-IFN
same,"Antiviral effect, 1","[1]; Hep-2, 28 μg/ml",28.7 IU/ml γ-IFN
same,"Antiviral effect, 2","[1]; Hep-2, 28 μg/ml",27 IU/ml γ-IFN
same,"Antiviral effect, 3","[1]; Hep-2, 28 μg/ml",31.4 IU/ml γ-IFN
same,"Antiviral effect, Mean","[1]; Hep-2, 28 μg/ml",28.3 IU/ml γ-IFN
same,Release of protective mediator by human peripheral blood mononuclear cells (in words),"human mononuclear cells; 14 and 28 μg/ml, 18 h",induce them to release certain mediator capable of conferring protection to the Hep-2 cells against viral infections
same,"Antiviral effect of supernatant, 1",human mononuclear cells; [4],28 IU/ml γ-IFN
same,"Antiviral effect of supernatant, 2",human mononuclear cells; [4],27.6 IU/ml γ-IFN
same,"Antiviral effect of supernatant, 3",human mononuclear cells; [4],20.4 IU/ml γ-IFN
same,"Antiviral effect of supernatant, Mean",human mononuclear cells; [4],25.3 IU/ml γ-IFN
same,"Antiviral effect of supernatant, 1",human mononuclear cells; [5],28.4 IU/ml γ-IFN
same,"Antiviral effect of supernatant, 2",human mononuclear cells; [5],28 IU/ml γ-IFN
same,"Antiviral effect of supernatant, 3",human mononuclear cells; [5],20 IU/ml γ-IFN
same,"Antiviral effect of supernatant, Mean",human mononuclear cells; [5],25.4 IU/ml γ-IFN
same,TNF - α,[2]; 14 μg/ml,0.84 ng/mL
same,TNF - α,[2]; 28 μg/ml,0.80 ng/mL
same,TNF-α levels versus control buffer treated cells (in words),[2]; 14-28 μg/ml alone,did not induce increased levels of TNF-α over the control buffer treated cells
same,Survival (%),"Pseudomona aerukinosa; 14 μg/0.1 ml intraperitoneally 20 hours prior to challenge with 2×10^8 bacteria/mouse, followed 120 hours",36%
same,Protection from lethal bacterial challenge (in words),Pseudomona aerukinosa; administrated prophylactically,protects mice from lethal bacterial challenge
same,Effect on systemic TNF after bacterial challenge (in words),TNF-α in mouse serum,induced a decrease of the proinflammatory cytokine TNF
same,"viability at 18 h, 5 µM",[3],≥ 98%
